Experimental data as given in patent US20260256728A1, “TREATMENT FOR ASYMPTOMATIC STARGARDT DISEASE PATIENTS” (priority 2024, published 2026).

Tested on: atrophic retinal lesions in Stargardt disease patients
Experiment: TEASE-1 growth rate of atrophic retinal lesions by fundus autofluorescence imaging
Type: in vivo, human
Design: relative slower growth rate of atrophic retinal lesions versus control / Percentage Slowing of Atrophic Retinal Lesion Growth Rate: concentration or dose not given beside the values
Description: The Tolerability and Effects of gildeuretinol acetate in Stargardt Disease (Clinical trial group 1, also known as TEASE-1) was a 24-month, multicenter, double-masked, placebo-controlled trial designed to evaluate the efficacy and safety of daily oral gildeuretinol acetate in slowing the growth of atrophic retinal lesions in Stargardt disease patients. The trial was conducted at multiple sites in the United States (NCT02402660).
Patients 12 years or older, clinically diagnosed with Stargardt disease, with at least one ABCA4 mutation, at least one eye presenting with well-demarcated areas of reduced fundus autofluorescence including retinal atrophic lesions, and with any visual acuity, were enrolled.
Patients were randomized to gildeuretinol acetate 14 mg capsules, gildeuretinol acetate 24 mg capsules, or placebo capsules, to be taken once daily for one year. After one year, 50% of randomly selected patients receiving placebo were crossed over in a 1:1 ratio to gildeuretinol acetate 14 mg capsules or gildeuretinol acetate 24 mg capsules for a second year.
Deidentified retinal images of patients not enrolled in the trial were included as a natural history cohort. This natural history cohort comprised patients diagnosed with Stargardt disease of any age, with two or more longitudinal fundus autofluorescence images taken at least four months apart over a maximum period of 2.5 years.
[…] retinal imaging comparing gildeuretinol acetate versus the untreated arm ([…]). Only well-delineated and homogeneous retinal atrophic lesions ≥0.2 mm^2 with a summed area ≥0.5 mm^2 were included in the primary analysis.
The primary endpoint analysis used a linear mixed-effect model (LMEM) with repeated measures, conferring a higher power to detect smaller effects. All observed data, including both eyes, were utilized. Treatment duration was computed as a continuous measure for each visit based on years since randomization. Adjustments for baseline retinal atrophy used the baseline atrophic retinal lesion size as a fixed effect in the LMEM. Additional fixed effects included treatment arm, treatment duration, and interaction between the treatment arm and treatment duration. Random effects included patient, eye, grader to adjust for correlation between eyes within a patient, graders' assessment of an eye, and observations of the same eye over time. A random effect slope term was added to the effect of treatment duration. Patients who crossed over to gildeuretinol acetate after year one were included in the untreated arm from baseline to year one, then in the gildeuretinol acetate arm from […] upon crossing over to gildeuretinol acetate. The full analysis set (FAS) comprised all randomized patients who received at least one dose of the study drug.
[…] All available data between 0 and 24 months was used to compute the slope of each segment. The primary efficacy endpoint was the slope of the second segment. No constraints were imposed on the Y-intercept. All growth rates were calculated on a per-year basis.
No imputations were made for missing data because the LMEM yields valid inferences under the assumption of a missing-at-random mechanism. The two-sided P-value of the primary efficacy endpoint was calculated using Kenward-Roger's method for handling denominator degrees of freedom and small samples. The goodness of fit of the linear mixed-effect model was provided as R-squared (R^2). Analyses were conducted in R (R Core Team, 2020). Prespecified, unadjusted sensitivity analyses of the primary efficacy endpoint included growth rates of untransformed areas of retinal atrophy and growth rates using a single-slope from baseline until the last available visit. Post-hoc unadjusted analyses were performed to evaluate the potential contribution of patient characteristics.

## [2H]C([2H])([2H])C(/C=C/C=C(C)/C=C/C1=C(C)CCCC1(C)C)=C\CO [Gildeuretinol, C20D3-retinol]
Crossover patients: 12 months placebo vs. 12 months treatment
  Percentage Slowing of Atrophic Retinal Lesion Growth Rate: 21%
Excluding 2 natural history cases <18 years old, 9 natural histories >60 years old
  Percentage Slowing of Atrophic Retinal Lesion Growth Rate: 21%
Excluding 3 randomized patients with one confirmed mutation
  Percentage Slowing of Atrophic Retinal Lesion Growth Rate: 20%
Excluding 13 natural history cases without any confirmed ABCA4 mutations and 6 natural histories with one confirmed mutation
  Percentage Slowing of Atrophic Retinal Lesion Growth Rate: 20%
Excluding 16 natural histories with only two follow up time points
  Percentage Slowing of Atrophic Retinal Lesion Growth Rate: 20%
Excluding natural history, randomized patients only, one slope (mm^2)
  Percentage Slowing of Atrophic Retinal Lesion Growth Rate: 30%
Excluding natural history, randomized patients only, two slopes (mm^2)
  Percentage Slowing of Atrophic Retinal Lesion Growth Rate: 23%
Using a single-slope from 0 to 24 months (mm^2)
  Percentage Slowing of Atrophic Retinal Lesion Growth Rate: 31%
Using untransformed areas of atrophic lesions (mm^2)
  Percentage Slowing of Atrophic Retinal Lesion Growth Rate: 28%
